In patent US10125138B2, “Triazolotriazinone derivatives having activity a s herbicides” (Syngenta Participations AG, priority 2015, dated 2018):

Columns and labels:
Format in all cases: in vivo
Settings in all cases: 1000 g/h, evaluated after 13 days, five point scale
[1] = test system: Echinochloa crus-galli (ECHCG); assay: Pre-emergence glasshouse herbicide test, Echinochloa crus-galli
Method: (§1) Seeds of a variety of test species are sown in standard soil in pots (Lolium perenne (LOLPE), Solanum nigrum (SOLNI), Amaranthus retoflexus (AMARE), Setaria faberi (SETFA), Echinochloa crus-galli (ECHCG), Ipomoea hederacea (IPOHE)). After cultivation for one day (pre-emergence) or after 8 days cultivation (post-emergence) under controlled conditions in a glasshouse (at 24/16° C., day/night; 14 hours light; 65% humidity), the plants are sprayed with an aqueous spray solution derived from the formulation of the technical active ingredient in acetone/water (50:50) solution containing 0.5% Tween 20 (polyoxyethelyene sorbitan monolaurate, CAS RN 9005-64-5). […] The test plants are then grown in a glasshouse under controlled conditions in a glasshouse (at 24/16° C., day/night; 14 hours light; 65% humidity) and watered twice daily. After 13 days for pre and post-emergence, the test is evaluated for the percentage damage caused to the plant. The biological activities are shown in the following table on a five point scale (5=80-100%; 4=60-79%; 3=40-59%; 2=20-39%; 1=0-19%).

[2] = test system: Ipomoea hederacea (IPOHE); assay: Pre-emergence glasshouse herbicide test, Ipomoea hederacea
Method: as §1

[3] = test system: Echinochloa crus-galli (ECHCG); assay: Post-emergence glasshouse herbicide test, Echinochloa crus-galli
Method: as §1

[4] = test system: Amaranthus retoflexus (AMARE); assay: Post-emergence glasshouse herbicide test, Amaranthus retoflexus
Method: as §1

[5] = test system: Lolium perenne (LOLPE); assay: Post-emergence glasshouse herbicide test, Lolium perenne
Method: as §1

[6] = test system: Solanum nigrum (SOLNI); assay: Pre-emergence glasshouse herbicide test, Solanum nigrum
Method: (§2) Seeds of a variety of test species are sown in standard soil in pots (Lolium perenne (LOLPE), Solanum nigrum (SOLNI), Amaranthus retoflexus (AMARE), Setaria faberi (SETFA), Echinochloa crus-galli (ECHCG), Ipomoea hederacea (IPOHE)). After cultivation for one day (pre-emergence) or after 8 days cultivation (post-emergence) under controlled conditions in a glasshouse (at 24/16° C., day/night; 14 hours light; 65% humidity), the plants are sprayed with an aqueous spray solution derived from the formulation of the technical active ingredient in acetone/water (50:50) solution containing 0.5% Tween 20 (polyoxyethelyene sorbitan monolaurate, CAS RN 9005-64-5). Compounds are applied at 1000 g/h. The test plants are then grown in a glasshouse under controlled conditions in a glasshouse (at 24/16° C., day/night; 14 hours light; 65% humidity) and watered twice daily. After 13 days for pre and post-emergence, the test is evaluated for the percentage damage caused to the plant. The biological activities are shown in the following table on a five point scale (5=80-100%; 4=60-79%; 3=40-59%; 2=20-39%; 1=0-19%).

[7] = test system: Solanum nigrum (SOLNI); assay: Post-emergence glasshouse herbicide test, Solanum nigrum
Method: as §2

[8] = test system: Lolium perenne (LOLPE); assay: Pre-emergence glasshouse herbicide test, Lolium perenne
Method: as §1

[9] = test system: Ipomoea hederacea (IPOHE); assay: Post-emergence glasshouse herbicide test, Ipomoea hederacea
Method: as §1

[10] = test system: Amaranthus retoflexus (AMARE); assay: Pre-emergence glasshouse herbicide test, Amaranthus retoflexus
Method: as §1

[11] = test system: Setaria faberi (SETFA); assay: Pre-emergence glasshouse herbicide test, Setaria faberi
Method: as §1

[12] = test system: Setaria faberi (SETFA); assay: Post-emergence glasshouse herbicide test, Setaria faberi
Method: as §1

SMILES | percentage damage caused to the plant, PRE Application ECHCG [1] | percentage damage caused to the plant, PRE Application IPOHE [2] | percentage damage caused to the plant, POST Application ECHCG [3] | percentage damage caused to the plant, POST Application AMARE [4] | percentage damage caused to the plant, POST Application LOLPE [5] | percentage damage caused to the plant, PRE Application SOLNI [6] | percentage damage caused to the plant, POST Application SOLNI [7] | percentage damage caused to the plant, PRE Application LOLPE [8] | percentage damage caused to the plant, POST Application IPOHE [9] | percentage damage caused to the plant, PRE Application AMARE [10] | percentage damage caused to the plant, PRE Application SETFA [11] | percentage damage caused to the plant, POST Application SETFA [12]
CCn1nnnc1NC(=O)c1nn2cnn(-c3ccc(OC)cc3)c2nc1=O [Compound 1.034] | 5 (5=80-100%) | 3 (3=40-59%) | 5 (5=80-100%) | 5 (5=80-100%) | 4 (4=60-79%) | 5 (5=80-100%) | 5 (5=80-100%) | 4 (4=60-79%) | 5 (5=80-100%) | 5 (5=80-100%) | 5 (5=80-100%) | 5 (5=80-100%)
CCCn1nnnc1NC(=O)c1nn2cnn(-c3ccc(OC)cc3)c2nc1=O [Compound 1.035] | 5 (5=80-100%) | 5 (5=80-100%) | 5 (5=80-100%) | 4 (4=60-79%) | 5 (5=80-100%) | 5 (5=80-100%) | 5 (5=80-100%) | 5 (5=80-100%) | 5 (5=80-100%) | 5 (5=80-100%) | 5 (5=80-100%) | 4 (4=60-79%)
CCCn1nnnc1NC(=O)c1nn2cnn(-c3cccc(OC)c3)c2nc1=O [Compound 1.036] | 5 (5=80-100%) | 4 (4=60-79%) | 4 (4=60-79%) | 5 (5=80-100%) | 5 (5=80-100%) | 5 (5=80-100%) | 5 (5=80-100%) | 5 (5=80-100%) | 5 (5=80-100%) | 5 (5=80-100%) | 5 (5=80-100%) | 5 (5=80-100%)
CCn1nnnc1NC(=O)c1nn2cnn(-c3ccc(F)cc3)c2nc1=O [Compound 1.037] | 5 (5=80-100%) | 5 (5=80-100%) | 5 (5=80-100%) | 5 (5=80-100%) | 4 (4=60-79%) | 5 (5=80-100%) | 5 (5=80-100%) | 4 (4=60-79%) | 4 (4=60-79%) | 5 (5=80-100%) | 5 (5=80-100%) | 5 (5=80-100%)
CCCn1nnnc1NC(=O)c1nn2cnn(-c3ccc(F)cc3)c2nc1=O [Compound 1.038] | 5 (5=80-100%) | 5 (5=80-100%) | 5 (5=80-100%) | 5 (5=80-100%) | 5 (5=80-100%) | 5 (5=80-100%) | 5 (5=80-100%) | 4 (4=60-79%) | 5 (5=80-100%) | 5 (5=80-100%) | 5 (5=80-100%) | 5 (5=80-100%)
